Measured values taken from ChEMBL document CHEMBL5126532, “Synthetic approaches and structural diversity of triazolylbutanols derived from voriconazole in the antifungal drug development” (Eur J Med Chem, 2022).
≈ marks a conversion by molar mass, not a printed value.

Experiments:
[1] = system: Aspergillus; test: Antifungal activity against Aspergillus; type: functional
[2] = system: Aspergillus fumigatus; test: Antifungal activity against Aspergillus fumigatus SANK 10569 by 96-well microplate method; type: functional
[3] = system: Cryptococcus neoformans; test: Antifungal activity against Cryptococcus neoformans TIMM 1855 by 96-well microplate method; type: functional
[4] = system: Aspergillus flavus; test: Antifungal activity against Aspergillus flavus SANK 18497 by 96-well microplate method; type: functional
[5] = system: Candida albicans; test: Antifungal activity against Candida albicans SANK 51486 by 96-well microplate method; type: functional
[6] = system: Candida; test: Antifungal activity against Candida spp.; type: functional
[7] = system: Cryptococcus neoformans; test: Antifungal activity against Cryptococcus neoformans; type: functional; details: Cryptococcus neoformans; read-out: MIC
[8] = system: Aspergillus fumigatus; test: Antifungal activity against Aspergillus fumigatus in 96-well microplate method; type: functional
[9] = system: Candida albicans; test: Antifungal activity against FCZ-resistant Candida albicans 103; type: functional
[10] = system: Candida parapsilosis; test: Antifungal activity against Candida parapsilosis; type: functional; details: Lodderomyces parapsilosis
[11] = system: Nannizzia gypsea; test: Antifungal activity against Microsporum gypseum; type: functional
[12] = system: Nannizzia gypsea; test: Potency index, ratio of MIC80 for FCZ to ratio of MIC80 for test compound against antifungal activity in Microsporum gypseum; type: functional
[13] = system: Candida albicans; test: Antifungal activity against FCZ-resistant Candida albicans 100; type: functional
[14] = system: Candida albicans; test: Antifungal activity against Candida albicans; type: functional
[15] = system: Aspergillus fumigatus; test: Antifungal activity against Aspergillus fumigatus; type: functional
[16] = Water solubility of the compound at pH 7.4; type: physicochemical; details: buffer
[17] = molecular target: Cytochrome P450 3A4 (Homo sapiens, UniProt P08684); test: Inhibition of CYP3A4 in human hepatocyte microsomes using testosterone as substrate by LC-MS/MS analysis; type: ADME, Microsome
[18] = system: Candida tropicalis; test: Antifungal activity against Candida tropicalis; type: functional
[19] = system: Nakaseomyces glabratus; test: Antifungal activity against Candida glabrata; type: functional
[20] = system: Pichia kudriavzevii; test: Antifungal activity against Candida krusei; type: functional
[21] = system: Candida albicans; test: In vivo antifungal activity against Candida albicans infected in CDF1 mouse treated po 4 hrs after injection twice daily for 2 days measured on day 10; type: functional; details: 48 h, time 2 day
[22] = system: Candida albicans; test: In vivo antifungal activity against Candida albicans infected in CDF1 mouse treated po or iv immediately after infection measured on day 7; type: functional; details: 168 h, time 7 day
[23] = system: Candida albicans; test: In vivo antifungal activity against Candida albicans infected in CDF1 mouse treated po or iv 2 hrs after infection twice daily for 2 days measured on day 10; type: functional; details: 240 h, time 10 day
[24] = system: Aspergillus fumigatus; test: Antifungal activity against Aspergillus fumigatus assessed as inhibition of fungal growth incubated for 20 hrs; type: functional
[25] = system: Candida albicans; test: Antifungal activity against Candida albicans TIMM1756 assessed as inhibition of fungal growth incubated for 20 hrs; type: functional
[26] = system: Aspergillus fumigatus; test: Antifungal activity against Aspergillus fumigatus IFO6344 assessed as inhibition of fungal growth incubated for 20 hrs; type: functional
[27] = system: Cryptococcus neoformans; test: Antifungal activity against Cryptococcus neoformans TIMM1855 assessed as inhibition of fungal growth incubated for 68 hrs; type: functional
[28] = system: Aspergillus fumigatus; test: In vivo antifungal activity against Aspergillus fumigatus infected in CDF1 mouse treated po 4 hrs after injection twice daily for 2 days measured on day 10; type: functional; details: 48 h, time 2 day
[29] = system: Candida albicans; test: Antifungal activity against Candida albicans TIMM1850 assessed as inhibition of fungal growth incubated for 20 hrs; type: functional
[30] = system: Cryptococcus neoformans; test: Antifungal activity against Cryptococcus neoformans TIMM1740 assessed as inhibition of fungal growth incubated for 68 hrs; type: functional
[31] = system: Candida albicans; test: Antifungal activity against Candida albicans assessed as inhibition of fungal growth incubated for 20 hrs; type: functional
[32] = system: Aspergillus fumigatus; test: Antifungal activity against Aspergillus fumigatus TIMM1728 assessed as inhibition of fungal growth incubated for 20 hrs; type: functional
[33] = Plasma protein binding in human; type: ADME, cell-free; details: route po, read-out: PPB (converted)
[34] = system: Aspergillus sp.; test: Antifungal activity against Aspergillus sp; type: functional; details: Aspergillus sp.; read-out: MIC

Cytochrome P450 3A4, sequence (P08684 whole entry): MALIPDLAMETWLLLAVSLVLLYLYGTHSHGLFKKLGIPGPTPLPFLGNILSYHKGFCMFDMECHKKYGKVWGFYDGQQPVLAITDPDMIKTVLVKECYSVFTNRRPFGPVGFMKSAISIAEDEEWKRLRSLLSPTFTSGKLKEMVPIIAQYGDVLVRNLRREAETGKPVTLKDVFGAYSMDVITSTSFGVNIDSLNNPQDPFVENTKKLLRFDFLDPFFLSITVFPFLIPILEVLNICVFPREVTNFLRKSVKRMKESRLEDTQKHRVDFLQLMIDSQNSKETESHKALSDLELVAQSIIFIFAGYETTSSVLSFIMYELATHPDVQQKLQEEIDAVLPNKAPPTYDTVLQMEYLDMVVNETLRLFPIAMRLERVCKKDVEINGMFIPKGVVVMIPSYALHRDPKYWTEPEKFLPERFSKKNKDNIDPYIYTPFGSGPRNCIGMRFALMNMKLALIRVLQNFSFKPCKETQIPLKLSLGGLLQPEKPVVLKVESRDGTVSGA

With `C[C@@H](C[C@H]1CO[C@H](/C=C/C=C/c2ccc(C(F)(F)F)cc2)OC1)[C@](O)(Cn1cncn1)c1ccc(F)cc1F` the MIC [1] was ≤ 0.5 µg/mL.

For `C[C@@H](S[C@H]1CO[C@H](/C=C/C=C/c2ccc(OCC(F)(F)C(F)F)cc2)OC1)[C@](O)(Cn1cncn1)c1ccc(F)cc1F`, the MIC [2] was 0.125 µg/mL (≈ 0.199 µM), the MIC [3] was 0.031 µg/mL (≈ 0.0492 µM) and the MIC [1] was ≤ 0.5 µg/mL. The MIC [4] was 0.125 µg/mL (≈ 0.199 µM) and the MIC [5] was 0.016 µg/mL (≈ 0.0254 µM).

`C[C@@H](N1CCn2nc(-c3ccc(C#N)nc3)nc2C1)[C@](O)(Cn1cncn1)c1ccc(F)cc1F` showed an MIC [6] of 0.0078 µg/mL (≈ 0.0163 µM), an MIC [1] of 1 µg/mL (≈ 2.09 µM) and an MIC [7] of 0.0078 µg/mL (≈ 0.0163 µM).

Work on `C[C@@H](N1Cc2sc(-c3cncnc3)nc2C1=O)[C@](O)(Cn1cncn1)c1ccc(F)cc1F` yielded an MIC80 [8] of 4 µg/mL (≈ 8.52 µM).

`C[C@@H](OCc1cc(-c2ccc(F)cc2)no1)[C@](O)(Cn1cncn1)c1ccc(F)cc1F` showed an MIC80 [9] of 8 µg/mL (≈ 18 µM), an MIC80 [10] of 0.0313 µg/mL (≈ 0.0704 µM) and an MIC80 [11] of 0.5 µg/mL (≈ 1.13 µM). It also gave a Ratio [12] of 64, an MIC80 [13] of 8 µg/mL (≈ 18 µM) and an MIC80 [14] of 0.0313 µg/mL (≈ 0.0704 µM). The MIC80 [15] was 4 µg/mL (≈ 9 µM).

Work on `C[C@@H](c1nc(-c2ccc(C#N)cc2)cs1)[C@](O)(Cn1cncn1)c1ccc(F)cc1F` [RAVUCONAZOLE] yielded an MIC80 [11] of 1 µg/mL (≈ 2.29 µM), a solubility [16] of 600 µg/mL (≈ 1370 µM) and an IC50 [17] of 1.01 µM.

`OC(Cn1cncn1)(Cn1cncn1)c1ccc(F)cc1F` [FLUCONAZOLE] showed an MIC [18] of 0.12 µg/mL (≈ 0.392 µM), an MIC [19] of 0.12 µg/mL (≈ 0.392 µM) and an MIC [10] of 0.12 µg/mL (≈ 0.392 µM). For the same compound, the MIC [2] was 0.25 µg/mL (≈ 0.816 µM), the MIC [11] was 32 µg/mL (≈ 104 µM) and the MIC [20] was 0.12 µg/mL (≈ 0.392 µM). For the same compound, the MIC [3] was 0.25 µg/mL (≈ 0.816 µM), the ED50 [21] was 0.22 mg/kg and the MIC [4] was 0.25 µg/mL (≈ 0.816 µM). For the same compound, the ED50 [22] was 0.22 mg/kg, the MIC [14] was 0.12 µg/mL (≈ 0.392 µM) and the MIC [15] was > 64 µg/mL. The MIC [5] was 0.25 µg/mL (≈ 0.816 µM) and the ED50 [23] was 179 mg/kg.

`C[C@@H](N1Cc2cc(Br)sc2C1=O)[C@](O)(Cn1cncn1)c1ccc(F)cc1F` showed an MIC [24] of 0.25 µg/mL (≈ 0.533 µM).

With `C[C@@H](N1CCN(c2ccc(-n3cnnn3)cc2)C1=O)[C@](O)(Cn1cncn1)c1ccc(F)cc1F` the MIC [25] was ≤ 0.001 µg/mL, the MIC [26] was 0.25 µg/mL (≈ 0.519 µM) and the MIC [27] was 0.016 µg/mL (≈ 0.0332 µM). The ED50 [28] was 4 mg/kg, the ED50 [21] was 0.18 mg/kg and the MIC [29] was ≤ 0.001 µg/mL. The ED50 [22] was 0.77 mg/kg, the MIC [30] was 0.016 µg/mL (≈ 0.0332 µM) and the MIC [31] was 0.16 µg/mL (≈ 0.332 µM). For the same compound, the MIC [32] was 0.25 µg/mL (≈ 0.519 µM) and the ED50 [23] was 3.56 mg/kg.

`C=C1CCN([C@H](C)[C@](O)(Cn2cncn2)c2ccc(F)cc2F)CC1` [EFINACONAZOLE] gave a fraction unbound [33] of 0.04.

Compound `C[C@@H](N1Cc2sc(Br)nc2C1=O)[C@](O)(Cn1cncn1)c1ccc(F)cc1F` has an MIC [6] of 0.0625 µg/mL (≈ 0.133 µM), an MIC [34] of 16 µg/mL (≈ 34 µM) and an MIC80 [8] of 4 µg/mL (≈ 8.51 µM). The MIC [7] was 0.125 µg/mL (≈ 0.266 µM).
